In a melting point compilation (Tetko et al.; mined from patent text by program, amines drawn as free bases though some values may be those of a salt):

First: Cc1oc(-c2ccccc2)nc1CCOc1ccc(CC2SC(=O)NC2=O)c2ccccc12 (stereo not given)
Second: COC(=O)C(Cc1ccc(OCCc2nc(-c3ccccc3)oc2C)cc1)C(N)=O (stereo not given)
The melting point of the first is higher: 188 to 191 °C for the first, 155 °C for the second.

First: O=C(O)CCCNS(=O)(=O)c1ccc(NC(=O)Nc2ccc(C(F)(F)F)cc2)cc1
Second: COc1ccc(C(=O)Nc2ccc(C(C)(C)C(N)=O)cc2)cc1
The melting point of the first is lower: 172 to 175 °C for the first, 234 to 235 °C for the second.

Compared with `O=C(O)C(=O)CC(=O)c1cn(Cc2ccccc2F)c2ccccc2c1=O`, `O=C1Cc2ccc3ccccc3c2C(c2ccccc2F)N1` (stereo not given) is higher in melting point: 172 to 174 °C for the first, 265 to 268 °C for the second.

First: O=C(O)[C@@H]1CSCN1C(=O)CCc1ccccc1
Second: O=P(O)(O)CNCCc1ccccc1
The melting point of the first is lower: 93 to 95 °C for the first, 148 to 150 °C for the second.

First: COC(=O)OC[C@@H]1CC(c2ccc(-c3ccc(N4C[C@H](Cn5ccnn5)OC4=O)cc3F)cn2)=NO1
Second: COC(=O)c1cccc(SCc2c(O[C@H](Cn3ccnc3)c3ccccc3)ccc3c2CCCC3=O)c1
The melting point of the first is higher: 205 °C for the first, 65 °C for the second.

Compared with `COC(=O)N[C@H](C(=O)N[C@@H](Cc1ccccc1)[C@@H](O)CN(Cc1ccc(-c2cncs2)cc1)NC(=O)[C@@H](NC(=O)OC)C(C)(C)C)C(C)C`, `COC(=O)N[C@@H](Cc1ccc(OCc2ccccc2)cc1)C(=O)Nc1c(C(C)C)cccc1C(C)C` is higher in melting point: 114 to 115 °C for the first, 179 to 182 °C for the second.

First: CC(C)(C)c1cc(SC[Si](C)(C)C)cc(C(C)(C)C)c1O
Second: CC(C)(C)c1cc(-c2nc(Br)no2)cc(C(C)(C)C)c1O
The melting point of the first is lower: 100 to 101 °C for the first, 113 to 115 °C for the second.

First: COc1ccc(N2C(=O)C(=O)c3cc(OC)ccc32)cc1
Second: COc1ccc(-n2nc(-c3ccccc3O)nc2-c2ccccc2O)cc1
The melting point of the first is higher: 203 to 205 °C for the first, 179 to 181 °C for the second.

First: COC(=O)c1ccc(CCc2cc3cc(C#N)ccc3o2)cc1
Second: Cc1ccc(-c2nc(COc3ccc(CCCCn4ccnc4)cc3)co2)o1
The melting point of the first is higher: 114 to 115 °C for the first, 91 to 92 °C for the second.

Compared with `CC(C)(C)OC(=O)c1cc2ccccc2[nH]1`, `NC(=O)NC(=O)c1ccc2ccccc2c1` is higher in melting point: 104 to 105 °C for the first, 207 to 208 °C for the second.

Compared with `CCc1nc(Cl)c(Oc2cc(OC)ccc2Cl)c(Cl)n1`, `COc1ccc(Cl)c(NC(C)=S)c1` is lower in melting point: 113 to 114 °C for the first, 92 to 93 °C for the second.

First: CN(Cc1ccccc1)c1c(-c2ccc(S(C)(=O)=O)cc2)cnn(-c2cccc(Cl)c2)c1=O
Second: CS(=O)(=O)c1ccc(-c2cc(C(=O)CCCO)nn2-c2ccc(F)cc2)cc1
The melting point of the first is lower: 60 to 85 °C for the first, 164 to 166 °C for the second.

First: O=C(Cc1ccc2[nH]cc(CCN3C(=O)c4ccccc4C3=O)c2c1)N1CCOCC1
Second: CCC1(c2ccccc2)CC(N2C(=O)c3ccccc3C2=O)C(=O)NC1=O (stereo not given)
The melting point of the first is lower: 140 to 141 °C for the first, 174 to 177 °C for the second.

Compared with `COc1ccc(NN=C(Sc2cc(C)ccc2C)C(C)=O)cc1`, `Cc1cccc(C)c1C(=O)Nc1ccc(OCCN2CCOCC2)cc1` is higher in melting point: 131 to 134 °C for the first, 177 to 190 °C for the second.

First: CC(C)(F)c1cnn2c(-c3ccc(F)c(-c4ccc(F)cc4C#N)c3F)cnc2n1
Second: CC(C)Cc1nc2ccc(OC(C)(C)C)cc2c(-c2ccccc2F)c1C#N
The melting point of the first is higher: 166 to 169 °C for the first, 127 to 129 °C for the second.

Compared with `N=C(N)c1ccc(N2CCC(N3CCN(CCC(=O)O)C3=O)CC2)cc1`, `O=C1N(CCCCCl)CCN1c1ccccc1` is lower in melting point: over 275 °C for the first, 47.5 to 49 °C for the second.

First: O=c1[nH]c2ccc(C(F)(F)F)cc2[nH]c1=O
Second: O=C1CCC(c2cccc(C(F)(F)F)c2)=NN1
The melting point of the first is higher: 330 °C for the first, 211 to 214 °C for the second.

Compared with `O=C(O)CCCCCOc1ccc(C2OC3C(CO)OC(n4cnc5c(Cl)ncnc54)C3O2)cc1` (stereo not given), `CCCCCCOc1ccc(C(=O)NC2CCC(C)(C)C2)cc1` (stereo not given) is lower in melting point: 127 to 129 °C for the first, 82 to 83 °C for the second.

First: O=C(CCl)Nc1ccc(-c2nc3ccccc3s2)cc1I
Second: Cc1ccccc1Nc1nc(N)nc2ccccc12
The melting point of the first is lower: 192 to 194 °C for the first, 273 to 275 °C for the second.

First: Cc1cscc1-c1nc(-c2c(F)cccc2Cl)nn1C
Second: CCOc1cc(Cl)nc(Sc2ccc(C)cc2)n1
The melting point of the first is higher: 153 to 155 °C for the first, 94 to 97 °C for the second.

First: COc1ccc(COc2c(C)c(C)c3c(c2C)C(c2ccc(C(C)C)cc2)C(C)(C)O3)cc1 (stereo not given)
Second: COc1ccc(C2(O)CCN(CC(O)c3ccc(OCc4ccccc4)cc3)CC2)cn1 (stereo not given)
The melting point of the first is lower: 95 to 96 °C for the first, 199 °C for the second.

First: CCc1cnc2c(NC(=O)c3c(Cl)cccc3Cl)cccc2c1/C=C/C(N)=O
Second: CCCc1c(C(=O)C(C)C)c2ccc(CC(N)=O)cc2n1Cc1ccccc1Cl
The melting point of the first is higher: over 250 °C for the first, 146 to 148 °C for the second.

Compared with `CCCCCCCCCCC#Cc1csc(CC(CO)NC(C)=O)c1` (stereo not given), `CCCCCCCCCCCCCCCCCCNC(=O)OC(=O)CCCCCCCCCCC` is higher in melting point: 55 to 58 °C for the first, 83 °C for the second.

Compared with `N#Cc1coc2cc(O)ccc2c1=O`, `Cc1ccc2c(c1)C(=O)c1ccccc1CO2` is lower in melting point: 292 to 293 °C for the first, 100 to 103 °C for the second.

Compared with `CC(C)(C)OC(=O)COC1CCN(C(=O)[C@H](Cc2ccc(OC(C)(C)C)cc2)NC(=O)c2ccc(C#N)cn2)CC1`, `N#Cc1ccc(NC(=O)C(=O)N2CCC(Cc3ccccc3)CC2)cc1` is lower in melting point: 122 to 123 °C for the first, 109 to 112 °C for the second.

First: CN1C(=O)CN(c2ccccc2)NC1=O
Second: CS(=O)(=O)N=c1oc2ccccc2o1
The melting point of the first is higher: 207 to 213 °C for the first, 161 to 163 °C for the second.

First: CC(C)(C)C(O)C(Oc1ccc(Cl)cc1)n1ncnc1S (stereo not given)
Second: Cc1nc2cc(OCCCCl)ccc2s1
The melting point of the first is higher: 193 to 194 °C for the first, 63 to 65 °C for the second.

`Cc1nc2c(N)nc3ccccc3c2n1CC1(O)CCC1` and `CC(C)c1nc2c(N)nc(-c3ccncc3)nc2[nH]1` cannot be ordered by melting point: over 250 °C for the first, 269 to 272 °C for the second.

Compared with `COc1cc(OC)cc(C(=O)NC(=O)Nc2ccc3c(c2)NC(=O)/C3=C\c2[nH]c(C)c(C(=O)O)c2C)c1`, `COc1cc(NOC(C)=O)cc(OC)c1` is lower in melting point: over 300 °C for the first, 163 to 165 °C for the second.

First: CCSC1CC2(C)C(CCC3C4CCC(C(C)=O)C4(C)CC(=O)C32)CC1O (stereo not given)
Second: COc1ccc2c(c1)CCC1C2CCC2(C)C(=O)C(C)CC12 (stereo not given)
The melting point of the first is higher: 170 to 173 °C for the first, 115 to 116 °C for the second.

First: CCOCN(C(=O)N(COCc1ccccc1)c1nc(OCC(F)(F)F)cc(OCC(F)(F)F)n1)c1ccc(C(F)(F)F)cc1
Second: O=C(O)Cn1cc(Cc2nc3c(F)c(F)cc(F)c3s2)c2cc(OCc3ccccc3)ccc21
The melting point of the first is lower: 62 to 65 °C for the first, 165 to 168 °C for the second.

First: CCOC(=O)c1cn(-c2nc(N)c(F)cc2F)c2c(Cl)c(NCC(O)COC3CNC3)c(F)cc2c1=O (stereo not given)
Second: COC(c1c(Cl)sc(Cl)c1Cl)C(C)N(OC)C(=O)c1cn(C)nc1C(F)F (stereo not given)
The melting point of the first is higher: 148 to 152 °C for the first, 113 to 116 °C for the second.

First: COc1ccc(OC(=O)Cl)cc1C12CC3CC(CC(C3)C1)C2
Second: C#CC1(c2ccc(OC)c(OC3CCCC3)c2)CCC2(CC1)OCCO2
The melting point of the first is higher: 87 to 89 °C for the first, 53.5 to 55 °C for the second.

First: O=[N+]([O-])c1cc(C(F)(F)F)c(Cl)c([N+](=O)[O-])c1Nc1cc(C(F)(F)F)cc(C(F)(F)F)n1
Second: Cc1cc(N)c([N+](=O)[O-])cc1NC(=O)OCCCl
The melting point of the first is lower: 169 to 170 °C for the first, 192 °C for the second.

First: O=C(CC1CCOCC1)N[C@H]1CC[C@H](CCN2CCC(c3ccc(F)c4occc34)CC2)CC1
Second: COc1ccc2c(c1)N(CCCN1CCC(CCO)CC1)c1cccc(S(C)(=O)=O)c1S2
The melting point of the first is higher: 188 °C for the first, 117 to 118 °C for the second.

First: CCCCCC1CCN([C@H]2CC[C@H](C(=O)OC)CC2)CC1
Second: CC(C)(C)OC(=O)NC1CCCCC1NC(=O)c1ccccn1 (stereo not given)
The melting point of the first is lower: 5 °C for the first, 78 to 79 °C for the second.

Compared with `CC(=O)c1nc2cc(C)c(F)cc2s1`, `COc1cc(C)c2[nH]ccc2c1C(N)(c1nc2cc(C#N)ccc2[nH]1)C(F)(F)F` (single isomer, unassigned; (-)) is higher in melting point: 152 to 153 °C for the first, 255 °C for the second.

First: COc1ccc2cc([C@H](C)C(=O)NNC(=O)CCCO[N+](=O)[O-])ccc2c1
Second: NC(=S)NNC(=O)CCCCc1ccccc1
The melting point of the first is lower: 117 to 119 °C for the first, 140 to 141 °C for the second.

Compared with `COc1ccc(Cc2ccc(NC3=NCCN3)cc2)s1`, `CN(C)Cc1ccc(CSCCNc2ncc(Cc3cccnc3)c(=O)[nH]2)cc1` is higher in melting point: 122 to 123 °C for the first, 124 to 126 °C for the second.

First: C=C(COc1ccccc1C=O)C(=O)OC
Second: CCOC(=O)C(=O)Nc1ccc(Cl)cc1[N+](=O)[O-]
The melting point of the first is lower: 50 to 52 °C for the first, 156 to 157 °C for the second.

Compared with `CS(=O)(=O)c1cnc(Cl)c(I)c1`, `CN(Cc1ccc(S(C)(=O)=O)cc1)S(=O)(=O)c1cn(S(=O)(=O)N(C)C)c(C#N)n1` is lower in melting point: 178 to 180 °C for the first, 169 to 172 °C for the second.

First: Cc1cccc(C(=O)N2CC2C#N)n1 (stereo not given)
Second: CCCc1nc(-n2cccc2)c(C(=O)OCC)[nH]1
The melting point of the first is lower: 120 to 122 °C for the first, 134 to 135 °C for the second.

First: C1CSC(SSCCSSC2=NCCS2)=N1
Second: c1ccn2c(=Nc3nccs3)snc2c1
The melting point of the first is lower: 102 °C for the first, 169 to 171 °C for the second.

First: CC(C(=O)O)c1ccc(OCCNC(=O)C2Cc3ccccc3N2S(=O)(=O)c2ccc(-c3cc(C(F)(F)F)ccc3Cl)cc2)cc1 (stereo not given)
Second: CC(C)(C)OC(=O)CC(Cc1ccccc1)NC(=O)C1Cc2ccccc2N1S(=O)(=O)c1ccc(-c2cccc(C(F)(F)F)c2)cc1 (stereo not given)
The melting point of the first is higher: 91 to 100 °C for the first, 50 °C for the second.

Compared with `CCOC(=O)C1=C[C@@H]2OC(C)=N[C@@H]2[C@@H](NC(=O)OC(C)(C)C)C1`, `CC(C)(C)CCNC(=O)c1coc(C2C3CCC(O3)C2Cc2ccccc2CCC(=O)O)n1` (stereo not given) is higher in melting point: 45 to 49 °C for the first, 160 to 162 °C for the second.

First: CC(C)N(CCC(C#N)c1ccc(-c2ccccc2)cc1)C(C)C (stereo not given)
Second: CC1=C(C(=O)OCCOc2ccccc2)C(c2ccccc2OC(F)F)c2c(ccnc2OC(C)C)N1 (stereo not given)
The melting point of the first is lower: 54 to 56 °C for the first, 122 to 124 °C for the second.

First: Cc1ccc(S(=O)(=O)OCC2COc3cc(F)c([N+](=O)[O-])cc3O2)cc1 (stereo not given)
Second: Cc1ccc(N(CCN2CCC(C(=O)c3ccc(F)cc3)CC2)C(=O)c2cccc([N+](=O)[O-])c2)cc1
The melting point of the first is lower: 106 to 107 °C for the first, 131 to 134 °C for the second.

Compared with `CC(=O)OC1CSC(Oc2cncc(-c3ccc(F)nc3)c2)C(OC(C)=O)C1OC(C)=O` (stereo not given), `FC(F)(F)Oc1ccc2[nH]c(-c3cccnc3)nc2c1` is higher in melting point: 167 to 169 °C for the first, 197 to 199 °C for the second.

First: COc1cccc(CNC(=O)c2nc3onc(C)c3c(=O)[nH]2)c1
Second: Oc1cccc(CCCn2ccnc2)c1
The melting point of the first is higher: 236 to 237 °C for the first, 110 to 111 °C for the second.

First: CCCCCC(Cc1cnc(SCCC)n1Cc1ccccc1Cl)C(=O)O (stereo not given)
Second: CCc1cn(C2CCC(CO)O2)c(=O)[nH]c1=O (stereo not given)
The melting point of the first is higher: 122 to 124 °C for the first, 109 to 113 °C for the second.
